Reference: patent EP4606801A1, “FUSED HETEROCYCLIC COMPOUND AND USE THEREOF” (Chengdu Zenitar Biomedical Technology Co., Ltd., priority 2022, dated 2024)

Key:
SUM14PT tumor cells = test: In-vivo pharmacodynamic study on subcutaneous xenograft tumor model of breast cancer SUM14PT; set-up: species or system nude mice; conditions: Fig. 4
Method: Experimental procedure: In this study, a mice model was established by subcutaneously inoculating SUM14PT tumor cells. Eight groups were divided for the experiment, with 6 mice in each group. The negative control group (Control) received normal saline at 0.2 mL per mice per administration, given orally once per day; the carboplatin control group (Carboplatin, Car) received 20 mg/kg at 0.2 mL per mice per administration, administered via intraperitoneal injection once every 7 days.

breast cancer MDA-MB-436 [1] = test: In-vivo pharmacodynamic study on subcutaneous xenograft tumor model of breast cancer MDA-MB-436; set-up: species or system NOD/SCID mice; conditions: for RTV / Tumor volume T/C% / Tumor weight (g) X±SD / Body weight (g) X±SD End / Tumor volume (mm^3) X±SD End: 24 days
Method: Strain: NOD/SCID; Grade: SPF; Source: Beijing Vitron River Bio-technology Co., Ltd.
The cells were washed 3 times with pre-cooled PBS, centrifuged at 300 g for 10 min, collected, re-suspended in PBS, and counted with a blood cell counting chamber, and the cell concentration was adjusted. After cell collection, the cell suspension was pre-cooled on ice. 100 µL of the cell suspension was administered via subcutaneous injection into the dorsal flank of the mice, and the grouped treatment was started when the tumor volume reached 200-300 mm^3.
General observation: Observation of animals: all live experimental animals to be observed; Observation time: twice a day; Observation items: including but not limited to general performance, behavioral status, eyes, mouth, nose and mouth, ears, hair, stool, urine, genitalia and other toxic symptoms; If abnormalities are observed, provide a detailed description.
Animal assay: all viable experimental animals scheduled for assay; Assay time: All animals were weighed before the modeling for test grouping. After modeling, the mice were weighed once every 2 days, and the weight change of the mice was recorded in real time. Effective criteria: tumor volume (TV), relative tumor volume (RTV) and relative tumor growth rate of subcutaneously implanted tumor model. […] The calculation formula of tumor volume (TV) was: TV (mm^3) = a×b2×0.5, where a and b were the long diameter and short diameter, respectively.
The evaluation index for anti-tumor activity was the relative tumor growth rate T/C (%), and the calculation formula was as follows: T/C(%) = TRTV/CRTV × 100%; [formula]
Where, TRTV is relative tumor volume of the treatment group; CRTV is relative tumor volume of the negative control group. Therapeutic evaluation criteria: T/C (%)> 60 is considered ineffective; T/C (%) ≤ 60, and P < 0.05 (through statistical analysis) is considered effective. Measurement of tumor weight and tumor inhibition rate (%): At the end of the treatment period, the animals were euthanize, tumor masses dissected and isolated, tumors weighed, and photographs took. The tumor inhibition rate (%) was calculated by the formula below: [formula]
All raw data within the facility were collected manually according to the experimental scheme and the relevant guidelines of the research institution, or gathered by using a data acquisition system. Manually collected data can be transcribed into software such as Excel for analysis and reporting. The data from each group were quantitative, and the experimental data for each group of animals in the tables were expressed as mean ± standard deviation (Mean ± SD). In the figures, the experimental data ware described as mean ± standard error of the mean (Mean ± SEM). Statistical analysis, including t-tests and survival analysis, was performed by using the software such as EXCEL and GraphPad Prism.
After 24 days of administration, the tumor-bearing mice were anesthetized and euthanized. The tumor tissues were dissected, weighed, and photographed, and the tumor inhibition rate was calculated.

gastric cancer PDX model = test: In-vivo pharmacodynamic study on PDX gastric cancer mice model; conditions: Fig. 3
Method: Experimental procedure: Tumor tissues from gastric cancer patients were used to establish a stable passaged tumor-bearing mice model. In this study, tumor fragments from mice that had been stably passaged three times were used for subcutaneous inoculation. Eight groups were divided for the experiment, with 6 mice in each group. The negative control group (Control) received normal saline at 0.2 mL per mice per administration, given orally once per day; the carboplatin control group (Carboplatin, Car) received 20 mg/kg at 0.2 mL per mice per administration, administered via intraperitoneal injection once every 7 days.

PARP2 = target: T1, PARP2 (Homo sapiens, UniProt Q9UGN5); test: Determination of PARP2 enzyme (histone-coated plate, Biotin-NAD+); assay type: biochemical
T1 construct: purchased BPS 80502
Method: • 1.2.1 Preparation of buffer solution: PBST: 1x PBS, 0.05% Tween-20; blocking solution: 1x PBS, 0.05% Tween-20, 5% BSA; reaction buffer solution: 50 mM HEPES (pH 7.5), 0.002% Tween-20, 0.1% BSA, 100 mM NaCl, 2mM DTT. • 1.2.2 Coating: A 100 ng/mL Histone coating solution was prepared by using 1x PBS, 25 uL of the coating solution was transferred to a 384-well reaction plate, and the reaction plate was coated overnight at 4°C. • 1.2.3 Washing: After the coating was completed, the coating solution was discarded, and the reaction plate was washed with the PBST solution by means of transferring 50uL of the PBST solution to the 384-well reaction plate, letting it stand for 5 min, discarding the washing solution, refilling the reaction plate, and repeating the washing process 3 times. Finally, the reaction plate was tapped dry and the next step of blocking was proceeded with. • 1.2.4 Blocking: 50 uL of the blocking solution was transferred to the 384-well reaction plate and set for 1 h. • 1.2.5 Washing: After the blocking was completed, the blocking solution was discarded, the reaction plate was washed 3 times with the PBST solution according to the method in Step 2, and the reaction plate was tapped dry. • 1.2.6 A 25/10× PARP2 solution was prepared, then 10 µL of the PARP2 solution was transferred to the 384-well reaction plate.

in vivo = conditions: male, SD, rat, po
Method: Experimental procedure: The compound, a small amount of DMSO and a sodium chloride injection were added to prepare the final solution for administration. The compound was orally administered to 6 male SD rats. […] The supernatant was collected and transferred into a sample vial for assay. Range of standard curve: 10 - 10,000 ng·mL^-1.

breast cancer MDA-MB-436 [2] = system: breast cancer MDA-MB-436; set-up: species or system NOD/SCID mice; conditions: mouse, in vivo

T1 sequence (Q9UGN5 whole entry): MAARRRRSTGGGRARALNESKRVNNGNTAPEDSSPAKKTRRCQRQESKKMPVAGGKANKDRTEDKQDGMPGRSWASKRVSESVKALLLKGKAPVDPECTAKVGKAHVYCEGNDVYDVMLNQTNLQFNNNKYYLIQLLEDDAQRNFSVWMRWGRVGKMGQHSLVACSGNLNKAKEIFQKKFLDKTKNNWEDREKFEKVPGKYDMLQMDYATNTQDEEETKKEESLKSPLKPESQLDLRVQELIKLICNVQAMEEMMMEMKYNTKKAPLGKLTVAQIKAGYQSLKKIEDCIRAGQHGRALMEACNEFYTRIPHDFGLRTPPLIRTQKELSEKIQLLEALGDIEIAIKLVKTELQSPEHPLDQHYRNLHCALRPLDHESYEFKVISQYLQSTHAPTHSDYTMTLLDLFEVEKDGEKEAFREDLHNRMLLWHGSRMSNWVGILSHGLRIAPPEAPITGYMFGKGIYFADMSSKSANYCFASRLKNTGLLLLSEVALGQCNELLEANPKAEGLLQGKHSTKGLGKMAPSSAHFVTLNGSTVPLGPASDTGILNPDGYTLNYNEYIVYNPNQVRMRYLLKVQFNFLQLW

[2H]C([2H])([2H])C([2H])([2H])c1cc2ncc(CN3CC=C(c4ccc(C(=O)NC)nc4)CC3)cc2[nH]c1=O [Compound 6, 1'-((7-(ethyl-d5)-6-oxo-5,6-dihydro-1,5-naphthyridin-3-yl)methyl)-N-methyl-1',2',3',6'-tetrahy dro-[3,4'-bipyridine]-6-carboxamide]
therapeutic efficacy in combination with carboplatin (SUM14PT tumor cells; 1 mg/kg orally once daily + carboplatin, versus Olaparib 100 mg/kg + carboplatin): better therapeutic efficacy than Olaparib
anti-tumor efficacy, monotherapy (SUM14PT tumor cells; 0.3 and 1 mg/kg orally once daily, versus Olaparib 100 mg/kg orally once daily): better anti-tumor efficacy compared to Olaparib
RTV (breast cancer MDA-MB-436 [1]; 0.03 mg/kg orally once daily): 2.7
Tumor volume T/C% (breast cancer MDA-MB-436 [1]; 0.03 mg/kg orally once daily): 40.8%
Tumor weight (g) X±SD (breast cancer MDA-MB-436 [1]; 0.03 mg/kg orally once daily): 1.09 ± 0.29 g
Body weight (g) X±SD End (breast cancer MDA-MB-436 [1]; 0.03 mg/kg orally once daily): 21.6 ± 0.7 g
Tumor volume (mm^3) X±SD End (breast cancer MDA-MB-436 [1]; 0.03 mg/kg orally once daily): 739.4±308.7 mm^3
Body weight (g) X±SD Start (breast cancer MDA-MB-436 [1]; 0.03 mg/kg orally once daily): 22.6 ± 0.7 g
Tumor volume (mm^3) X±SD Start (breast cancer MDA-MB-436 [1]; 0.03 mg/kg orally once daily): 275.0±68.1 mm^3
RTV (breast cancer MDA-MB-436 [1]; 0.1 mg/kg orally once daily): 0.8
Tumor volume T/C% (breast cancer MDA-MB-436 [1]; 0.1 mg/kg orally once daily): 12.6%
Tumor weight (g) X±SD (breast cancer MDA-MB-436 [1]; 0.1 mg/kg orally once daily): 0.29 ± 0.09 g
Body weight (g) X±SD End (breast cancer MDA-MB-436 [1]; 0.1 mg/kg orally once daily): 21.6 ± 0.7 g
Tumor volume (mm^3) X±SD End (breast cancer MDA-MB-436 [1]; 0.1 mg/kg orally once daily): 228.0±75.9 mm^3
Body weight (g) X±SD Start (breast cancer MDA-MB-436 [1]; 0.1 mg/kg orally once daily): 22.3 ± 1.0 g
Tumor volume (mm^3) X±SD Start (breast cancer MDA-MB-436 [1]; 0.1 mg/kg orally once daily): 274.7±73.8 mm^3
RTV (breast cancer MDA-MB-436 [1]; 0.3 mg/kg orally once daily): 0.3
Tumor volume T/C% (breast cancer MDA-MB-436 [1]; 0.3 mg/kg orally once daily): 3.8%
Tumor weight (g) X±SD (breast cancer MDA-MB-436 [1]; 0.3 mg/kg orally once daily): 0.09 ± 0.08 g
complete tumor regression (mice out of 6) (breast cancer MDA-MB-436 [1]; 0.3 mg/kg orally once daily, at the end of treatment): 2/6
Body weight (g) X±SD End (breast cancer MDA-MB-436 [1]; 0.3 mg/kg orally once daily): 22.0 ± 0.9 g
Tumor volume (mm^3) X±SD End (breast cancer MDA-MB-436 [1]; 0.3 mg/kg orally once daily): 71.0±62.5 mm^3
Body weight (g) X±SD Start (breast cancer MDA-MB-436 [1]; 0.3 mg/kg orally once daily): 22.3 ± 0.8 g
Tumor volume (mm^3) X±SD Start (breast cancer MDA-MB-436 [1]; 0.3 mg/kg orally once daily): 281.9±67.4 mm^3
tumor growth in gastric cancer PDX model (gastric cancer PDX model; 3 mg/kg p.o once per day combined with carboplatin 20 mg/kg i.p once per 7 days): significantly inhibit tumor growth
inhibitory effect on the gastric cancer PDX model (gastric cancer PDX model; 0.3, 1, 3 mg/kg p.o once per day combined with carboplatin 20 mg/kg i.p once per 7 days): dose-dependent inhibitory effect
IC50 (PARP2): > 1000 nM
half-life (in vivo): 8.4 h
anti-tumor efficacy in the model of large-volume tumors (breast cancer MDA-MB-436 [2]): complete regression of tumors
rate of tumor regression compared to the compounds 1 and 21 (breast cancer MDA-MB-436 [2]): faster rate of tumor regression
